Laboratory results: the supplement of paper PMC10307832

What was measured:
Experiment in all cases: relative viability (nuclei count vs DMSO), 5 days (fraction); higher = more cells survive
[1] = compound: CC[C@@H]1C(=O)N(C)c2cnc(Nc3ccc(C(=O)NC4CCN(C)CC4)cc3OC)nc2N1C1CCCC1 [BI-2536] + C[C@]1(O)C[C@@H](c2nc(-c3ccc4ccc(-c5ccccc5)nc4c3)c3c(N)nccn32)C1 [Linsitinib] (partner 1 µM)
Method in brief: (§1)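 Relative viability is defined as nuclei in treated wells over nuclei in vehicle wells. Duplicate plates were run and medians reported. Lung cancer cell lines in 1536-well plates were dosed by pin tool one day after seeding, with one drug or with a fixed anchor-drug dose plus five library-drug doses (not always all listed) in √10 steps, and nuclei were counted after 5 days.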

[2] = compound: CC[C@@H]1C(=O)N(C)c2cnc(Nc3ccc(C(=O)NC4CCN(C)CC4)cc3OC)nc2N1C1CCCC1 [BI-2536] + COc1cccc2cc(-c3nc([C@H]4CC[C@H](C(=O)O)CC4)n4ncnc(N)c34)[nH]c12 [OSI-027] (partner 0.5 µM)
Method in brief: as §1

[3] = compound: CC[C@@H]1C(=O)N(C)c2cnc(Nc3ccc(C(=O)NC4CCN(C)CC4)cc3OC)nc2N1C1CCCC1 [BI-2536] + Cc1nc(NC(=O)N2CCC[C@H]2C(N)=O)sc1-c1ccnc(C(C)(C)C(F)(F)F)c1 [Alpelisib] (partner 2 µM)
Method in brief: as §1

[4] = compound: CC[C@@H]1C(=O)N(C)c2cnc(Nc3ccc(C(=O)NC4CCN(C)CC4)cc3OC)nc2N1C1CCCC1 [BI-2536] + O=C(CCCCCCC(=O)Nc1ccccc1)NO [Vorinostat] (partner 1 µM)
Method in brief: as §1

| Cell Line | relative viability ([1]; first compound 0.01 µM) | relative viability ([1]; first compound 0.03162 µM) | relative viability ([1]; first compound 0.1 µM) | relative viability ([1]; first compound 0.3162 µM) | relative viability ([1]; first compound 1 µM) | relative viability ([2]; first compound 0.01 µM) | relative viability ([2]; first compound 0.03162 µM) | relative viability ([2]; first compound 0.1 µM) | relative viability ([2]; first compound 0.3162 µM) | relative viability ([2]; first compound 1 µM) | relative viability ([3]; first compound 0.01 µM) | relative viability ([3]; first compound 0.03162 µM) | relative viability ([3]; first compound 0.1 µM) | relative viability ([3]; first compound 0.3162 µM) | relative viability ([3]; first compound 1 µM) | relative viability ([4]; first compound 0.01 µM) | relative viability ([4]; first compound 0.03162 µM) | relative viability ([4]; first compound 0.1 µM) | relative viability ([4]; first compound 0.3162 µM) | relative viability ([4]; first compound 1 µM) |
| --- | --- | --- | --- | --- | --- | --- | --- | --- | --- | --- | --- | --- | --- | --- | --- | --- | --- | --- | --- | --- |
| NCI-H520 | 0.984 | 0.852 | 0.792 | 0.153 | 0.171 | 0.277 | 0.289 | 0.195 | 0.292 | 0.2 | 0.833 | 0.828 | 0.315 | 0.201 | 0.154 | 0.599 | 0.25 | 0.24 | 0.181 | 0.179 |
| NCI-H460 | 0.844 | 0.755 | 0.28 | 0.0093 | 0.0128 | 0.676 | 0.327 | 0.247 | 0.0156 | 0.0121 | 0.523 | 0.481 | 0.0303 | 0.0093 | 0.0065 | 0.735 | 1.07 | 0.119 | 0.0148 | 0.014 |
| EKVX | 1.1 | 0.96 | 0.818 | 0.368 | 0.169 | 0.717 | 0.731 | 0.66 | 0.258 | 0.149 | 0.933 | 0.826 | 0.791 | 0.175 | 0.138 | 0.875 | 0.729 | 0.676 | 0.407 | 0.208 |
| NCI-H358 | 0.723 | 0.676 | 0.402 | 0.161 | 0.137 | 0.758 | 0.477 | 0.0848 | 0.0717 | 0.0809 | 0.995 | 0.537 | 0.154 | 0.158 | 0.159 | 0.507 | 0.138 | 0.0931 | 0.0884 | 0.0847 |
| EPLC-272H | 1.12 | 1.15 |  | 0.143 | 0.0967 | 0.35 | 0.21 | 0.165 | 0.162 | 0.137 | 0.951 | 0.758 |  | 0.0883 | 0.114 | 0.339 | 0.126 | 0.0766 | 0.112 | 0.0972 |
| NCI-H1395 | 0.928 | 0.785 | 0.633 | 0.544 | 0.474 | 0.617 | 0.64 | 0.313 | 0.306 | 0.386 | 0.958 | 0.502 | 0.43 | 0.499 | 0.369 | 0.669 | 0.431 | 0.285 | 0.311 | 0.356 |
| NCI-H2126 | 0.751 | 0.759 | 0.721 | 0.46 | 0.268 | 0.832 | 0.641 | 0.472 | 0.276 | 0.218 | 0.739 | 0.731 | 0.62 | 0.269 | 0.237 | 0.8 | 0.832 | 0.243 | 0.218 | 0.177 |
| LXF-289 | 0.988 | 0.892 | 0.845 | 0.069 | 0.0799 | 0.844 | 0.687 | 0.181 | 0.0418 | 0.0509 | 1.02 | 0.975 | 0.519 | 0.0396 | 0.0625 | 0.855 | 0.684 | 0.372 | 0.0658 | 0.0936 |
| NCI-H2009 | 1.21 | 1.18 | 1.14 | 0.394 | 0.294 | 0.613 | 0.543 | 0.259 | 0.173 | 0.154 | 1.15 | 1.01 | 0.581 | 0.236 | 0.191 | 0.745 | 0.689 | 0.373 | 0.193 | 0.152 |
| NCI-H2405 | 0.903 | 0.855 | 0.745 | 0.225 | 0.468 | 0.609 | 0.64 | 0.481 | 0.163 | 0.312 | 0.665 | 0.408 | 0.374 | 0.132 | 0.365 | 0.981 | 0.608 | 0.35 | 0.278 | 0.337 |
| NCI-H1755 | 1.03 | 0.992 | 0.971 | 0.455 | 0.272 | 0.707 | 0.692 | 0.324 | 0.245 | 0.275 | 0.989 | 0.903 | 0.711 | 0.284 | 0.296 | 0.833 | 0.595 | 0.426 | 0.34 | 0.329 |
| HCC-78 | 0.613 | 0.481 | 0.511 | 0.52 | 0.207 | 0.376 | 0.359 | 0.317 | 0.363 | 0.198 | 0.357 | 0.295 | 0.379 | 0.211 | 0.164 | 0.421 | 0.49 | 0.379 | 0.268 | 0.27 |
| LOU-NH91 | 0.968 | 0.925 | 1.04 | 0.691 | 0.289 | 0.716 | 0.697 | 0.695 | 0.416 | 0.244 | 0.764 | 0.602 | 0.657 | 0.359 | 0.317 | 0.915 | 0.865 | 0.443 | 0.311 | 0.264 |
| NCI-H3122 | 1.03 | 1.06 | 1.01 | 0.184 | 0.224 | 0.944 | 0.16 | 0.13 | 0.17 | 0.213 | 0.877 | 0.662 | 0.354 | 0.198 | 0.203 | 0.928 | 0.779 | 0.179 | 0.149 | 0.151 |
| HCC-827 | 1.08 | 1.01 | 0.947 | 0.796 | 0.268 | 0.715 | 0.752 | 0.853 | 0.285 | 0.195 | 0.934 | 1.03 | 0.867 | 0.282 | 0.243 | 0.884 | 0.943 | 0.665 | 0.222 | 0.227 |
| SK-LU-1 | 1.04 | 1.19 | 1.02 | 0.3 | 0.303 | 0.341 | 0.278 | 0.198 | 0.172 | 0.146 | 1.03 | 0.507 | 0.317 | 0.28 | 0.244 | 0.727 | 0.643 | 0.271 | 0.247 | 0.247 |
